Minimal effective dose and IC50 data for 3 compounds are collected here from patent US4889861A, “Substituted imidazo[1,5-a]pyridine derivatives and other substituted bicyclic derivatives and their use as aromatase inhibitors” (Ciba-Geigy Corp., priority 1987, dated 1989).

One assay concerns aromatase. Put plainly: in vivo inhibition of aromatase activity: suppression of ovarian estrogen content of PMS-hCG primed female rats. The conditions noted are these: Rattus norvegicus, po. As to the method:
Twenty-one-day-old female rats are injected subcutaneously with 10 IU pregnant mare serum gonadotropin (PMS). Two days later the same rats are injected subcutaneously with 30 IU human chorionic gonadrotropin (hCG). On the day following the hCG treatment the rats are injected subcutaneously with either propylene glycol (0.2 ml:p.o.) or with various doses of the test compound. […] Four hours after the injection of androstenedione the rats are killed and their ovaries removed and trimmed free of adhering tissue and stored in pairs at -40° C. To determine the total estrogen content of the ovaries, 1.5 ml of 0.05M aqueous potassium phosphate buffer, pH 7.4, and 0.2 ml of 0.1N aqueous sodium hydroxide are added to the tissues which are then homogenized. The homogenate is extracted with 15 ml of diethyl ether, 5 ml aliquots are radioimmunoassayed with antiserum having 100% cross reactivity with estrone, estradiol and estriol. The results are expressed as ng estrogen/pair of ovaries.

A further assay addresses T1, thromboxane synthetase (Homo sapiens, UniProt P24557).
T1 construct: crude microsomal preparation of thromboxane synthetase from lysed hyman platelets; from tissue; host or cells: lysed human (printed 'hyman') platelets, crude microsomes
T1 sequence (P24557 1-533): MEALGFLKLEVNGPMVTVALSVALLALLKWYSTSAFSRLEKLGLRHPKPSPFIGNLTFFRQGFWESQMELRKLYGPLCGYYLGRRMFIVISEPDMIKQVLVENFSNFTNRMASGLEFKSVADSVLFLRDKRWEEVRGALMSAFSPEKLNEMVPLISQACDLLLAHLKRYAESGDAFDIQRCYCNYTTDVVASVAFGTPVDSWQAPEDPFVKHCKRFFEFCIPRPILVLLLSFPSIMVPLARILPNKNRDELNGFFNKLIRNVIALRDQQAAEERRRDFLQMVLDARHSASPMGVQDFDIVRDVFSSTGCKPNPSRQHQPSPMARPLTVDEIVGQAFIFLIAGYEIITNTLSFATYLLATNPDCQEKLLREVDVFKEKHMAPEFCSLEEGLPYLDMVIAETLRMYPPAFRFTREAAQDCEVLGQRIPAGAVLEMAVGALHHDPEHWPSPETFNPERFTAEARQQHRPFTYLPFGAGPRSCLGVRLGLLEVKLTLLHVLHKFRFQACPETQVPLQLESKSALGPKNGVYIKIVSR
Put plainly: in vitro inhibition of the thromboxane synthetase enzyme (TxB2/PGF2 ratio). The conditions noted are these: 30 min incubation. The assay is classed as biochemical. As to the method:
Res. Comm. 74, 1432 (1977); the testing procedure is as follows:
^14 C-arachidonic acid is incubated with an enzyme preparation consisting of solubilized and partially purified prostaglandin cyclo-oxygenase from sheep seminal vesicles and a crude microsomal preparation of thromboxane synthetase from lysed hyman platelets. The test compound (dissolved in buffer, or if necessary, in a small amount of ethanol) is added to the incubation medium. At the end of the incubation period (30 minutes), Prostaglandin E2 (PGE2) is reduced to a mixture of Prostaglandin F2 α and F2 β (PGF2 α+β) by addition of sodium borohydride. The radioactive products and excess substrate are extracted into ethyl acetate; the extract is evaporated to dryness; the residue is dissolved in acetone, spotted on thin-layer plates and chromatographed in the solvent system toluene: acetone: glacial acetic acid (100 volumes: 100 volumes: 3 volumes). The radioactive zones are located; those corresponding to Thromboxane B2 (T×B2) and PGF2 α+β are transferred to liquid scintillation vials and counted. The ratio of counts for T×B2 /PGF2 α+β is calculated for each concentration of test compound and IC50 values are determined graphically as the concentration of test compound at which the ratio of T×B2 /PGF2 α+β is reduced to 50% of the control value.

The structures appear in SMILES notation.

The term minimal effective dose denotes the smallest amount tested that counted as effective. A low value points to an effect from little substance. Compound `N#Cc1ccc(-c2cccc3cncn23)cc1` [Example 3, 5-(p-Cyanophenyl)imidazo[1,5-a]pyridine] registered a minimal effective dose with aromatase of 0.013 mg/kg.

The term IC50 denotes the concentration needed to halve the response being measured. In the case of `O=C(O)c1ccc(C2CCCc3cncn32)cc1` (stereo not drawn) [Example 9, 5-(p-Carboxyphenyl)-5,6,7,8-tetrahydroimidazo[1,5-a]-pyridine], the IC50 at thromboxane synthetase was about 900 nM.

Take `CCOC(=O)CC1CCc2cncn2C1c1ccc(C#N)cc1` (stereo not drawn) [Example 33, 5-(4-cyanophenyl)-6-ethoxycarbonylmethyl-5,6,7,8-tetrahydroimidazo[1,5-a]pyridine]: the minimal effective dose in the assay with aromatase worked out at 0.346 mg/kg.
